In ChEMBL document CHEMBL1152190, “Synthesis of spiro-1,2-dioxolanes and their activity against Plasmodium falciparum” (Bioorg Med Chem Lett, 2008):
Calls of active or inactive are those of the source. The calls are words filed in the database; no cut-off is given here.

Tests used:
[1] = test system: Plasmodium falciparum; assay: Antimalarial activity as reduced parasitaemia after 72 hrs against chloroquine-resistant Plasmodium falciparum 7G8 in human erythrocytes by DAPI stain; assay type: functional, organism-based; details: 7G8, 72 h
[2] = test system: Plasmodium falciparum; assay: Antimalarial activity as reduced parasitaemia after 72 hrs against chloroquine-resistant Plasmodium falciparum 106/1 in human erythrocytes by DAPI stain; assay type: functional, organism-based; details: 106/1, 72 h
[3] = test system: Plasmodium falciparum; assay: Antimalarial activity as reduced parasitaemia after 72 hrs against chloroquine-resistant Plasmodium falciparum Dd2 in human erythrocytes by DAPI stain; assay type: functional, organism-based; details: Dd2, 72 h
[4] = test system: Plasmodium falciparum; assay: Antimalarial activity as reduced parasitaemia after 72 hrs against chloroquine-resistant Plasmodium falciparum FCB in human erythrocytes by DAPI stain; assay type: functional, organism-based
[5] = test system: Heme; assay: Inhibition of heme crystallization by parasite-independent assay; assay type: functional
[6] = test system: Plasmodium falciparum; assay: Antimalarial activity as reduced parasitaemia after 72 hrs against chloroquine-sensitive Plasmodium falciparum 3D7 in human erythrocytes by DAPI stain; assay type: functional, organism-based; details: 3D7, 72 h
[7] = test system: Plasmodium falciparum; assay: Antimalarial activity against Plasmodium falciparum NF54; assay type: functional, organism-based
[8] = test system: Plasmodium falciparum; assay: Antimalarial activity against Plasmodium falciparum K1; assay type: functional, organism-based

For O=C(CN1CCC2(CCCCC2)C1)NCCNc1ccnc2cc(Cl)ccc12, the EC50 [1] was 91 nM, the EC50 [2] was 53 nM and the EC50 [3] was 78 nM. The EC50 [4] was 80 nM, the Activity [5] was “inactive” and the EC50 [6] was 69 nM.

In the case of CC1(CC(=O)NCCNc2ccnc3cc(Cl)ccc23)CC2(CCCCC2)OO1 (stereo unspecified), the EC50 [1] is reported as 8 nM, the EC50 [2] is reported as 22 nM and the EC50 [3] is reported as 6 nM. For the same molecule, the EC50 [4] was 16 nM, the Activity [5] was “inactive” and the EC50 [6] was 5 nM.

With NCCNc1ccnc2cc(Cl)ccc12 the EC50 [3] was 155 nM, the Activity [5] was “inactive” and the EC50 [6] was 57 nM.

CC1(CC(=O)NCc2ccc(-c3ccccc3)cc2)CC2(CCCCC2)OO1 (stereo unspecified) was tested, and the EC50 [3] was 77 nM, the Activity [5] was “inactive” and the EC50 [6] was 100 nM.

CC1(CCOCc2ccccc2)CC2(CCCCC2)OO1 (stereo unspecified) was tested, and the EC50 [3] was 146 nM, the Activity [5] was “inactive” and the EC50 [6] was 141 nM.

CC(=O)OCCC1(C)CC2(CCCC(C)C2)OO1 (mixture of isomers) was tested, and the EC50 [3] was 114 nM, the Activity [5] was “inactive” and the EC50 [6] was 109 nM.

CC1CCCC2(C1)CC(C)(CCOCc1ccccc1)OO2 (mixture of isomers) was tested, and the EC50 [3] was 151 nM, the Activity [5] was “inactive” and the EC50 [6] was 92 nM.

In the case of C[C@@H]1CC[C@H]2[C@@H](C)C(=O)O[C@@H]3O[C@@]4(C)CC[C@@H]1[C@]32OO4 [ARTEMISININ], the EC50 [1] is reported as 48 nM, the EC50 [2] is reported as 13 nM and the EC50 [3] is reported as 4 nM. For the same molecule, the EC50 [4] was 8 nM and the EC50 [6] was 4 nM.

CC1CCCC2(C1)CC(C)(CC(=O)O)OO2 (mixture of isomers) gave an EC50 [3] of over 1000 nM and an EC50 [6] of over 1000 nM.

With CC1CCCC2(C1)CC(C)(CCO)OO2 (mixture of isomers) the EC50 [3] was 149 nM, the Activity [5] was “inactive” and the EC50 [6] was 241 nM.

With CC1CCC2(CC1)CC(C)(CCOCc1ccccc1)OO2 (mixture of isomers) the EC50 [3] was 59 nM, the Activity [5] was “inactive” and the EC50 [6] was 545 nM.

CC1(CCOCc2ccccc2)CC2(CCC(C(C)(C)C)CC2)OO1 (mixture of isomers) was tested, and the EC50 [3] was 74 nM, the Activity [5] was “inactive” and the EC50 [6] was 86 nM.

Work on CCNC(=O)CC1(C)CC2(CCCCC2)OO1 (stereo unspecified) yielded an EC50 [1] of 83 nM, an EC50 [2] of 142 nM and an EC50 [3] of 99 nM. For the same molecule, the EC50 [4] was 356 nM and the EC50 [6] was 485 nM.

Work on CC(C)(CO)CC1(C)C[C@]2(CC[C@H](C)CC2)OO1 (stereo partly specified) yielded an EC50 [3] of 897 nM and an EC50 [6] of 332 nM.

CC(C)(N)CNC(=O)CC1(C)CC2(CCCCC2)OO1 (stereo unspecified) was tested, and the EC50 [3] was 108 nM, the Activity [5] was “inactive” and the EC50 [6] was 61 nM.

CC1(CC(=O)NCC2C3CC4CC(C3)CC2C4)CC2(CCCCC2)OO1 (stereo unspecified) was tested, and the EC50 [3] was 57 nM, the Activity [5] was “inactive” and the EC50 [6] was 81 nM.

Work on C1CCC2(CC1)CC1(CCCCC1)OO2 yielded an EC50 [7] of 523 nM and an EC50 [8] of 195 nM.

With C1CCC2(CC1)CC1(OO2)C2CC3CC(C2)CC1C3 (stereo unspecified) the EC50 [7] was over 2000 nM, the EC50 [8] was over 2000 nM and the Activity [5] was “inactive”.

In the case of COCCC1(C)CC2(CCCC(C)C2)OO1 (mixture of isomers), the EC50 [3] is reported as 62 nM, the Activity [5] is reported as “inactive” and the EC50 [6] is reported as 69 nM.

Work on CCN(CC)CCCC(C)Nc1ccnc2cc(Cl)ccc12 (stereo unspecified) [CHLOROQUINE] yielded an EC50 [1] of 46 nM, an EC50 [2] of 14 nM and an EC50 [3] of 66 nM. For the same molecule, the EC50 [4] was 52 nM and the EC50 [6] was 7 nM.

With C1CCC2(CC1)OOC1(O2)C2CC3CC(C2)CC1C3 (stereo unspecified) the EC50 [7] was 5.3 nM and the EC50 [8] was 3.67 nM.
